#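 Tested at 5 concentrations; 48 h exposure; 96-well plates; endpoints linearly interpolated, else capped at highest concentration. Abbreviation: GI50, concentration required for 50% inhibition of growth. TGI: concentration producing complete growth inhibition.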
# Columns and labels:
# Assay in all cases: DTP human tumour cell line panel, 48 h
# 786-0 renal = tested on: 786-0 renal
# A498 renal = tested on: A498 renal
# A549 NSCLC = tested on: A549 NSCLC
# ACHN renal = tested on: ACHN renal
# BT-549 breast = tested on: BT-549 breast
# CAKI-1 renal = tested on: CAKI-1 renal
# CCRF-CEM leukemia = tested on: CCRF-CEM leukemia
# DU-145 prostate = tested on: DU-145 prostate
# EKVX NSCLC = tested on: EKVX NSCLC
# HCC-2998 colon = tested on: HCC-2998 colon
# HCT-116 colon = tested on: HCT-116 colon
# HCT-15 colon = tested on: HCT-15 colon
# HL-60(TB) leukemia = tested on: HL-60(TB) leukemia
# HOP-92 NSCLC = tested on: HOP-92 NSCLC
# HS 578T breast = tested on: HS 578T breast
# HT29 colon = tested on: HT29 colon
# K-562 leukemia = tested on: K-562 leukemia
# KM12 colon = tested on: KM12 colon
# LOX IMVI melanoma = tested on: LOX IMVI melanoma
# M14 melanoma = tested on: M14 melanoma
# MALME-3M melanoma = tested on: MALME-3M melanoma
# MCF7 breast = tested on: MCF7 breast
# MDA-MB-231 breast = tested on: MDA-MB-231 breast
# MDA-MB-435 = tested on: MDA-MB-435
# MOLT-4 leukemia = tested on: MOLT-4 leukemia
# NCI-H23 lung = tested on: NCI-H23 lung
# NCI-H460 lung = tested on: NCI-H460 lung
# NCI-H522 lung = tested on: NCI-H522 lung
# NCI/ADR-RES ovarian = tested on: NCI/ADR-RES ovarian
# OVCAR-3 ovarian = tested on: OVCAR-3 ovarian
# OVCAR-4 ovarian = tested on: OVCAR-4 ovarian
# OVCAR-5 ovarian = tested on: OVCAR-5 ovarian
# OVCAR-8 ovarian = tested on: OVCAR-8 ovarian
# PC-3 prostate = tested on: PC-3 prostate
# RPMI-8226 leukemia = tested on: RPMI-8226 leukemia
# RXF 393 renal = tested on: RXF 393 renal
# SF-268 CNS = tested on: SF-268 CNS
# SF-295 CNS = tested on: SF-295 CNS
# SF-539 CNS = tested on: SF-539 CNS
# SK-MEL-2 melanoma = tested on: SK-MEL-2 melanoma
# SK-MEL-28 melanoma = tested on: SK-MEL-28 melanoma
# SK-MEL-5 melanoma = tested on: SK-MEL-5 melanoma
# SK-OV-3 ovarian = tested on: SK-OV-3 ovarian
# SN12C renal = tested on: SN12C renal
# SNB-19 CNS = tested on: SNB-19 CNS
# SNB-75 CNS = tested on: SNB-75 CNS
# SW-620 colon = tested on: SW-620 colon
# TK-10 renal = tested on: TK-10 renal
# U251 CNS = tested on: U251 CNS
# UACC-257 melanoma = tested on: UACC-257 melanoma
# UACC-62 melanoma = tested on: UACC-62 melanoma
# UO-31 renal = tested on: UO-31 renal
smiles,measurement,setting,value
Cc1ccc(Sc2oc(-c3ccc(C)cc3)nc2[P+](c2ccccc2)(c2ccccc2)c2ccccc2)cc1,GI50,786-0 renal,379 nM
same,TGI,786-0 renal,1650 nM
same,GI50,A498 renal,152 nM
same,TGI,A498 renal,842 nM
same,GI50,A549 NSCLC,305 nM
same,TGI,A549 NSCLC,1240 nM
same,GI50,ACHN renal,311 nM
same,TGI,ACHN renal,1160 nM
same,GI50,BT-549 breast,365 nM
same,TGI,BT-549 breast,1370 nM
same,GI50,CAKI-1 renal,283 nM
same,TGI,CAKI-1 renal,1060 nM
same,GI50,CCRF-CEM leukemia,310 nM
same,TGI,CCRF-CEM leukemia,1640 nM
same,GI50,DU-145 prostate,416 nM
same,TGI,DU-145 prostate,1480 nM
same,GI50,EKVX NSCLC,296 nM
same,TGI,EKVX NSCLC,1260 nM
same,GI50,HCC-2998 colon,399 nM
same,TGI,HCC-2998 colon,1570 nM
same,GI50,HCT-116 colon,260 nM
same,TGI,HCT-116 colon,1260 nM
same,GI50,HCT-15 colon,310 nM
same,TGI,HCT-15 colon,1260 nM
same,GI50,HL-60(TB) leukemia,230 nM
same,TGI,HL-60(TB) leukemia,566 nM
same,GI50,HOP-92 NSCLC,178 nM
same,TGI,HOP-92 NSCLC,722 nM
same,GI50,HS 578T breast,378 nM
same,TGI,HS 578T breast,1980 nM
same,GI50,HT29 colon,294 nM
same,TGI,HT29 colon,1150 nM
same,GI50,K-562 leukemia,302 nM
same,TGI,K-562 leukemia,1520 nM
same,GI50,KM12 colon,338 nM
same,TGI,KM12 colon,1300 nM
same,GI50,LOX IMVI melanoma,166 nM
same,TGI,LOX IMVI melanoma,323 nM
same,GI50,M14 melanoma,403 nM
same,TGI,M14 melanoma,1570 nM
same,GI50,MALME-3M melanoma,241 nM
same,TGI,MALME-3M melanoma,813 nM
same,GI50,MCF7 breast,286 nM
same,TGI,MCF7 breast,1090 nM
same,GI50,MDA-MB-231 breast,280 nM
same,TGI,MDA-MB-231 breast,1030 nM
same,GI50,MDA-MB-435,336 nM
same,TGI,MDA-MB-435,1200 nM
same,GI50,MOLT-4 leukemia,319 nM
same,TGI,MOLT-4 leukemia,1110 nM
same,GI50,NCI-H23 lung,298 nM
same,TGI,NCI-H23 lung,1020 nM
same,GI50,NCI-H460 lung,312 nM
same,TGI,NCI-H460 lung,1120 nM
same,GI50,NCI-H522 lung,148 nM
same,TGI,NCI-H522 lung,379 nM
same,GI50,NCI/ADR-RES ovarian,490 nM
same,TGI,NCI/ADR-RES ovarian,2210 nM
same,GI50,OVCAR-3 ovarian,359 nM
same,TGI,OVCAR-3 ovarian,1330 nM
same,GI50,OVCAR-4 ovarian,280 nM
same,TGI,OVCAR-4 ovarian,1430 nM
same,GI50,OVCAR-5 ovarian,416 nM
same,TGI,OVCAR-5 ovarian,1590 nM
same,GI50,OVCAR-8 ovarian,345 nM
same,TGI,OVCAR-8 ovarian,1650 nM
same,GI50,PC-3 prostate,305 nM
same,TGI,PC-3 prostate,1340 nM
same,GI50,RPMI-8226 leukemia,308 nM
same,TGI,RPMI-8226 leukemia,1350 nM
same,GI50,RXF 393 renal,316 nM
same,TGI,RXF 393 renal,1330 nM
same,GI50,SF-268 CNS,399 nM
same,TGI,SF-268 CNS,1660 nM
same,GI50,SF-295 CNS,291 nM
same,TGI,SF-295 CNS,1020 nM
same,GI50,SF-539 CNS,404 nM
same,TGI,SF-539 CNS,1530 nM
same,GI50,SK-MEL-2 melanoma,1120 nM
same,TGI,SK-MEL-2 melanoma,2630 nM
same,GI50,SK-MEL-28 melanoma,595 nM
same,TGI,SK-MEL-28 melanoma,1870 nM
same,GI50,SK-MEL-5 melanoma,287 nM
same,TGI,SK-MEL-5 melanoma,785 nM
same,GI50,SK-OV-3 ovarian,270 nM
same,TGI,SK-OV-3 ovarian,1100 nM
same,GI50,SN12C renal,311 nM
same,TGI,SN12C renal,1210 nM
same,GI50,SNB-19 CNS,375 nM
same,TGI,SNB-19 CNS,1470 nM
same,GI50,SNB-75 CNS,154 nM
same,TGI,SNB-75 CNS,846 nM
same,GI50,SW-620 colon,338 nM
same,TGI,SW-620 colon,1320 nM
same,GI50,TK-10 renal,447 nM
same,TGI,TK-10 renal,1850 nM
same,GI50,U251 CNS,303 nM
same,TGI,U251 CNS,1410 nM
same,GI50,UACC-257 melanoma,303 nM
same,TGI,UACC-257 melanoma,1150 nM
same,GI50,UACC-62 melanoma,398 nM
same,TGI,UACC-62 melanoma,1500 nM
same,GI50,UO-31 renal,240 nM
same,TGI,UO-31 renal,935 nM

# Source: PubChem BioAssay (NCI)
